# Experimental data reported in US20250230193A1, “CYCLIC COMPOUND HAVING SELECTIVE KRAS INHIBITORY EFFECT ON HRAS AND NRAS” (CHUGAI SEIYAKU KABUSHIKI KAISHA, priority 2022, published 2025).
# *1 amine or outer side, *2 acyl side, *3 side chain or, on linkers, in order; H or OH if unused. Where a SMILES comes first, the peptide text is derived from it. Bridges are numbered along the chain shown (N, C = ends). [ ]: non-standard residue; d: D form. The star is where a group is joined. X24 = O=C([C@H](Cc1ccc(C(F)(F)F)cc1)N(CCC(F)(F)F)[*:1])[*:2]; hPhe(3-Cl-4-CF3) = N[C@@H](CCc1ccc(C(F)(F)F)c(Cl)c1)C(=O)O; NPrPhe(4-CF3) = CCCN[C@@H](Cc1ccc(C(F)(F)F)cc1)C(=O)O; NEtPhe(4-Me) = CCN[C@@H](Cc1ccc(C)cc1)C(=O)O; NMeGly(cPent) = CN[C@H](C(=O)O)C1CCCC1; Pro(4,4-Me2) = CC1(C)CN[C@H](C(=O)O)C1; Hyp = O=C(O)[C@@H]1C[C@@H](O)CN1; NMeD = CN[C@@H](CC(=O)O)C(=O)O; NMeL = CN[C@@H](CC(C)C)C(=O)O; Morpholide = C1CN(*)CCO1; NMeA = CN[C@@H](C)C(=O)O; Ac5c = NC1(C(=O)O)CCCC1; Aze = O=C(O)[C@@H]1CCN1; Sar = CNCC(=O)O
# Key:
# [1] = molecular target: GDP-bound HRAS wild-type protein (Homo sapiens, UniProt P01112); experiment: Binding to HRAS by surface plasmon resonance (SPR), Single Cycle Kinetics
# Chain of GDP-bound HRAS wild-type protein (P01112 whole entry): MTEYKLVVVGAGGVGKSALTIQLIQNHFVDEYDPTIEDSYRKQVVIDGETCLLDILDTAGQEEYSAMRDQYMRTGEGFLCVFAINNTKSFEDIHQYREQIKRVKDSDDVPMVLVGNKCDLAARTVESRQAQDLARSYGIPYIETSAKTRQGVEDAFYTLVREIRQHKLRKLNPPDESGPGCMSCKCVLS
# [2] = molecular target: GDP-bound NRAS wild-type protein (Homo sapiens, UniProt P01111); experiment: Binding to NRAS by surface plasmon resonance (SPR), Single Cycle Kinetics
# Chain of GDP-bound NRAS wild-type protein (P01111 whole entry): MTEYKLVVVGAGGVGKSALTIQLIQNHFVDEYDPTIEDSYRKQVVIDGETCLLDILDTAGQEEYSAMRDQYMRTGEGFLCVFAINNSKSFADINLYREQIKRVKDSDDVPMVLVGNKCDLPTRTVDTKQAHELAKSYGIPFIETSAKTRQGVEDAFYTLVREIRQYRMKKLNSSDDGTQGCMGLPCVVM
compound,measurement,setting,value
CCCN1C(=O)[C@@H]2CCN2C(=O)CN(C)C(=O)[C@H]([C@@H](C)CC)NC(=O)[C@H](CC(C)C)N(C)C(=O)C[C@@H](C(=O)N2CCOCC2)NC(=O)[C@H](C2CCCC2)N(C)C(=O)C2(CCCC2)NC(=O)[C@@H]2C[C@@H](OCC)CN2C(=O)[C@H](CCc2ccc(C(F)(F)F)c(Cl)c2)NC(=O)CN(C)C(=O)[C@@H]1Cc1ccc(C(F)(F)F)cc1 [PP0353] ([NMeL]I[Sar][Aze][NPrPhe(4-CF3)][Sar][hPhe(3-Cl-4-CF3)][Hyp](Et)[Ac5c][NMeGly(cPent)]D-Morpholide; lactam N-11),HRAS/KRAS (ratio of KD for GDP-bound HRAS wild-type to KD for KRAS),[1]; SPR,B (a compound having 3 or more and less than 10 is denoted as B)
same,NRAS/KRAS (ratio of KD for GDP-bound NRAS wild-type to KD for KRAS),[2]; SPR,C (A compound having a KD ratio of 0.1 or more and less than 3 is denoted as C)
CC[C@H](C)[C@@H]1NC(=O)[C@H](CC(C)C)N(C)C(=O)C[C@@H](C(=O)N2CCOCC2)N(C)C(=O)[C@H](C2CCCC2)N(C)C(=O)C2(CCCC2)NC(=O)[C@@H]2C[C@@H](O)CN2C(=O)[C@H](CCc2ccc(C(F)(F)F)c(Cl)c2)NC(=O)CN(C)C(=O)[C@H](Cc2ccc(C)cc2)N(CC)C(=O)[C@@H]2CCN2C(=O)[C@H](C)N(C)C1=O [PP0013] ([NMeL]I[NMeA][Aze][NEtPhe(4-Me)][Sar][hPhe(3-Cl-4-CF3)][Hyp][Ac5c][NMeGly(cPent)][NMeD]-Morpholide; lactam N-11),HRAS/KRAS (ratio of KD for GDP-bound HRAS wild-type to KD for KRAS),[1]; SPR,C (A compound having a KD ratio of 0.1 or more and less than 3 is denoted as C)
same,NRAS/KRAS (ratio of KD for GDP-bound NRAS wild-type to KD for KRAS),[2]; SPR,C (A compound having a KD ratio of 0.1 or more and less than 3 is denoted as C)
"CCCN1C(=O)CN(C)C(=O)CN(C)C(=O)[C@H]([C@@H](C)CC)NC(=O)[C@H](CC(C)C)N(C)C(=O)C[C@@H](C(=O)N2CCOCC2)N(C)C(=O)[C@H](C2CCCC2)N(C)C(=O)C2(CCCC2)NC(=O)[C@@H]2CC(C)(C)CN2C(=O)[C@H](CCc2ccc(C(F)(F)F)c(Cl)c2)NC(=O)CN(C)C(=O)[C@@H]1Cc1ccc(C(F)(F)F)cc1 [PP0446] ([NMeL]I[Sar][Sar][NPrPhe(4-CF3)][Sar][hPhe(3-Cl-4-CF3)][Pro(4,4-Me2)][Ac5c][NMeGly(cPent)][NMeD]-Morpholide; lactam N-11)",HRAS/KRAS (ratio of KD value with respect to GDP-bound HRAS wild-type protein to KD value with respect to KRAS),[1]; SPR,C (A compound having a KD ratio of 0.1 or more and less than 3 is denoted as C)
same,NRAS/KRAS (ratio of KD value with respect to GDP-bound NRAS wild-type protein to KD value with respect to KRAS),[2]; SPR,B (a compound having 3 or more and less than 10 is denoted as B)
CCO[C@@H]1C[C@H]2C(=O)NC3(CCC3)C(=O)N(C)[C@@H](C3CCCC3)C(=O)N(C)[C@H](C(=O)N(C)C)CC(=O)N(C)[C@@H](CC(C)(C)C)C(=O)N[C@@H]([C@@H](C)CC)C(=O)N(C)CC(=O)N(C)[C@H]3CCCCCN(C3=O)[C@@H](Cc3ccc(C(F)(F)F)cc3)C(=O)N(C)CC(=O)N[C@@H](CCc3cc(F)c(C(F)(F)F)c(F)c3)C(=O)N2C1 [PP0669],HRAS/KRAS (ratio of KD value with respect to GDP-bound HRAS wild-type protein to KD value with respect to KRAS),[1]; SPR,B (a compound having 3 or more and less than 10 is denoted as B)
same,NRAS/KRAS (ratio of KD value with respect to GDP-bound NRAS wild-type protein to KD value with respect to KRAS),[2]; SPR,B (a compound having 3 or more and less than 10 is denoted as B)
CCC(CC)[C@H]1C(=O)N(C)[C@H](C(=O)N(C)C)CC(=O)N(C)[C@@H](COC)C(=O)N[C@@H]([C@@H](C)CC)C(=O)N(C)CC(=O)N(C)[C@H]2C/C=C\CCN(C2=O)[C@@H](CC2CCC(F)(F)CC2)C(=O)N(C)CC(=O)N[C@@H](CCc2cc(F)c(C(F)(F)F)c(F)c2)C(=O)N2C[C@@H](C)C[C@H]2C(=O)NC2(CC(C)(C)C2)C(=O)N1C [PP2448],HRAS/KRAS (ratio of KD value with respect to HRAS to KD value with respect to KRAS),"[1]; SPR, GDP-bound HRAS wild-type vs GDP-bound KRAS wild-type",A (a compound having 10 or more and less than 20 is denoted as A)
same,NRAS/KRAS (ratio of KD value with respect to NRAS to KD value with respect to KRAS),"[2]; SPR, GDP-bound NRAS wild-type vs GDP-bound KRAS wild-type",A (a compound having 10 or more and less than 20 is denoted as A)
CCC(CC)[C@H]1C(=O)N(C)[C@H](C(=O)N(C)C)CC(=O)N(C)[C@@H](COC)C(=O)N[C@@H]([C@@H](C)CC)C(=O)N(C)CC(=O)N(C)[C@H]2C/C=C\CCN(C2=O)[C@@H](Cc2ccc(C)cc2)C(=O)N(C)CC(=O)N[C@@H](CCc2cc(F)c(C(F)(F)F)c(F)c2)C(=O)N2CCCC[C@H]2C(=O)NC2(CC(C)(C)C2)C(=O)N1C [PP2922],HRAS/KRAS (ratio of KD value with respect to GDP-bound HRAS wild-type protein to KD value with respect to KRAS),[1]; class symbols,A (a compound having 10 or more and less than 20 is denoted as A)
same,NRAS/KRAS (ratio of KD value with respect to GDP-bound NRAS wild-type protein to KD value with respect to KRAS),[2]; class symbols,AA (a compound having 20 or more is denoted as AA)
CC[C@H](C)[C@@H]1NC(=O)[C@H](CC(C)C)N(C)C(=O)C[C@@H](C(=O)N2CCOCC2)N(C)C(=O)[C@H](C2CCCC2)N(C)C(=O)C2(CCCC2)NC(=O)[C@@H]2CCCN2C(=O)[C@H](CCc2ccc(C(F)(F)F)c(Cl)c2)NC(=O)CN(C)C(=O)[C@H](Cc2ccc(C(F)(F)F)cc2)N(CCC(F)(F)F)C(=O)CN(C)C(=O)CN(C)C1=O [PP0131] ([NMeL]I[Sar][Sar][X24][Sar][hPhe(3-Cl-4-CF3)]P[Ac5c][NMeGly(cPent)][NMeD]-Morpholide; lactam N-11),HRAS/KRAS (ratio of KD for GDP-bound HRAS wild-type to KD for KRAS),[1]; SPR,C (A compound having a KD ratio of 0.1 or more and less than 3 is denoted as C)
same,NRAS/KRAS (ratio of KD for GDP-bound NRAS wild-type to KD for KRAS),[2]; SPR,B (a compound having 3 or more and less than 10 is denoted as B)
